Data published in patent US20080287396A1, “Phosphonated Fluoroquinolones, Antibacterial Analogs Thereof, and Methods for the Prevention and Treatment of Bone and Joint Infections” (TARGANTA THERAPEUTICA INC., priority 2005, published 2008).

Assays:
[1] = Bone powder binding, fluorometric detection; conditions: for Binding to bone (%) Fluorescence: 1 mg/ml compound, bone meal powder 10 mg/ml in PBS, 37° C., 1 h; for binding to osseous matter, in words: bisphosphonates bearing three hydroxy groups
Description: The ability of the example molecules to bind to bone powder was established in two parallel fashions, using either LC/MS or fluorometric detection. For LC/MS detection, a stock solution (5 mM) of the compound to be tested was added to 0.1M Tris-HCl buffer pH 7, 0.15M NaCl to reach a final concentration of 100 μM. Triplicate samples (1 mL) of the compound solutions were intensively shaken for 10 min with or without 25 mg of fresh or 20 mg of vacuum dried ground rat tibia bone. The samples were then centrifuged for 15 min at 10 000 g. The presence of unbound compound was measured by injection of 30 μL of each of the supernatants into an Agilent 1100™ LC/UV system. For fluorometric detection, an individual compound was dissolved in PBS or water (compound 52) and resuspended at a concentration of 1 mg/ml in a slurry of bone meal powder (Now Foods, Bloomingdale, Ill., USA) in PBS at 10 mg/ml. The suspension of drug/prodrug in bone meal powder was incubated at 37° C. for 1 h to allow for binding, and centrifuged at 13 000 rpm for 2 min, before recovering the supernatant. The bone meal powder pellet was then washed three times with 1 ml of PBS. All supernatants were saved and assessed for fluoroquinolone content by fluorescence measurements at excitation/emission wavelengths of 280/465 nm. The amount of fluoroquinolone was determined from standard curves generated for each experiment. Amount of drug/prodrug bound to bone powder was deduced from the difference between the input amount (typically 1 mg) and the amount recovered in the supernatants after binding. In all binding experiments, >99% of input drug was recovered in the supernatant for the parent drugs.

S. aureus ATCC 13709 = assay: Prophylactic model of bone infection in rats; assay type: in vivo, rat; conditions: for prophylactic effect in rat model of bone infection, in words: Table 4 and FIGS. 6-8, doses as in Table 4
Description: To determine the activity in vivo of bisphosphonated prodrugs of fluoroquinolones, compounds 52 and 107, derivatives of parent compounds moxifloxacin 3 (for 52), and compounds 39, 44, 49, 54, 121, 129, 141, 145, 149, derivatives of parent compound gatifloxacin 15, were used in a prophylactic model for infection. Specifically, S. aureus ATCC 13709 cells were grown overnight at 37° C. in brain heart infusion broth (BHIB). Cells were subcultured into fresh BHIB and incubated for 4 to 5 h at 37° C. The cells were washed twice with phosphate-buffered saline (PBS) and resuspended in BHIB supplemented with 10% (vol./vol.) fetal bovine serum at a density of approximately 10^10 colony forming units (CFU)/ml (based upon turbidimetry). The suspension was aliquoted and a portion was used to check the CFU count. The culture was stored frozen (−80° C.) and was used without subculture. For use as an inoculum the culture was thawed, diluted in PBS and kept in an ice bath until it was used.
Animals were infected as described by O'Reilly et al. (Antimicrobial Agents and Chemotherapy (1992), 36(12): 2693-97) to generate the bone infection. Female CD rats (age, 57 to 70 days; n=5/group; Charles River, St-Constant, Canada) were anaesthetized by isofluorane before and during the surgery. Following complete induction of anesthesia, the rat was placed ventral side up and hair was shaved from the surgical site. The skin over the leg was cleaned and disinfected (proviodine-ethanol 70%). A longitudinal incision below the knee joint was made in the sagital plane. The incision was made over the bone below the “knee joint” (tibia head or condyle) but not completely extending to the ankle. A high speed drill fitted with a 2 mm bulb bit was used to drill a hole into the medullar cavity of the tibia. Rats were injected intra-tibially with 0.05 ml 5% sodium morrhuate (sclerosing agent) and then with 0.05 ml of S. aureus suspension (ca. 5×10^5 CFU/rat). The hole was sealed by applying a small amount of dry dental cement which immediately absorbs fluids and adheres to the site. The wound was closed using 3 metal skin clips. Moxifloxacin 3 (as a positive control) was injected once at 10 mg/kg intravenously 1 h postinfection in saline, while the fluoroquinolone prodrugs (prepared in 0.9% saline) were injected as a single intravenous bolus dose at different time points prior to the infection. For comparison, the parent drug (moxifloxacin 3 or gatifloxacin 15) was also injected intravenously once at a molar equivalent dose at the same time point prior the infection.
Infected rats were sacrificed by CO2 asphyxiation 24 h postinfection to monitor the bacterial CFU count. Infected tibiae were removed, dissected free of soft tissue, and weighed. The bones were ground using a metal ball mill, resuspended in 5 ml 0.9% NaCl, serially diluted and processed for quantitative cultures. For compounds 39, 44, 49, 54, 141, 145, 149, 1 ml of the 0.9% NaCl solution was added to 50 mg of charcoal before serial dilutions. Treatment efficacies were measured in terms of Log viable bacteria (Log CFU per gram of bone). The results obtained for each group of rats were evaluated by calculating the mean Log CFU and standard deviation. The limit of detection is 2 Log CFU/g of bone. Statistical comparisons of viable bacterial counts for the different treated and untreated groups were performed with Dunnett's multiple-comparison test. Differences were considered significant when the P value was <0.05 when comparing treated infected animals to the untreated infected ones.

| SMILES | Binding to bone (%) Fluorescence [1] | prophylactic effect in rat model of bone infection, in words (S. aureus ATCC 13709) | other results |
| --- | --- | --- | --- |
| COc1c(N2C[C@@H]3CCCN[C@@H]3C2)c(F)cc2c(=O)c(C(=O)OCC(=O)N(C)C(P(=O)(O)O)P(=O)(O)O)cn(C3CC3)c12 [Compound 80, (N-Methyl-1,1-Bisphosphonomethylcarbamoyl)methyl 1-cyclopropyl-6-fluoro-1,4-dihydro-7-((4aS,7aS)-octahydropyrrolo[3,4-b]pyridin-6-yl)-8-methoxy-4-oxoquinoline-3-carboxylate] | 97.3% |  |  |
| COc1c(N2CCNC(C)C2)c(F)cc2c(=O)c(C(=O)OCC(=O)NCCCC[C@@H](NC(=O)COC(=O)c3cn(C4CC4)c4c(OC)c(N5CCNC(C)C5)c(F)cc4c3=O)C(=O)NC(P(=O)(O)O)P(=O)(O)O)cn(C3CC3)c12 (stereo partly drawn) [Compound 134] | 92.8% |  |  |
| COc1c(N2CCN(C(=O)CC(C)(C)c3cc(P(=O)(O)CP(=O)(O)O)ccc3OC(=O)C(C)C)C(C)C2)c(F)cc2c(=O)c(C(=O)O)cn(C3CC3)c12 (stereo not drawn) [Compound 145, 7-(4-(3-(2-(2,2-dimethylacetoxy)-5-((phosphonomethyl)phosphonoyl)phenyl)-3-methylbutanoyl)-3-methylpiperazin-1-yl)-1-cyclopropyl-6-fluoro-1,4-dihydro-8-methoxy-4-oxoquinoline-3-carboxylic acid] | 76.0% | unable to produce a positive result in vivo | binding to osseous matter, in words [1]: less effectively bound; Measured bacterial titer (Log CFU/g of bone) Test compound (S. aureus ATCC 13709; 47.2 mg/kg IV, 2 days prior to infection): 4.69 ± 0.78 Log CFU/g of bone |
| COc1c(N2CCN(Cc3oc(=O)oc3-c3ccc(P(=O)(O)CP(=O)(O)O)cc3)C(C)C2)c(F)cc2c(=O)c(C(=O)O)cn(C3CC3)c12 (stereo not drawn) [Compound 129, 1-Cyclopropyl-6-fluoro-1,4-dihydro-8-methoxy-7-(3-methyl-4-((2-oxo-5-(4-(phosphonomethylphosphinoyl)phenyl)-1,3-dioxol-4-yl)methyl)piperazin-1-yl)-4-oxoquinoline-3-carboxylic acid] | 63.7% | unable to produce a positive result in vivo | binding to osseous matter, in words [1]: less effectively bound; Measured bacterial titer (Log CFU/g of bone) Test compound (S. aureus ATCC 13709; 10.75 mg/kg IV, 2 days prior to infection): 6.14 ± 1.05 Log CFU/g of bone |
| CCCC(=O)Oc1ccc(P(=O)(O)CP(=O)(O)O)cc1C(C)(C)CC(=O)N1CCN(c2c(F)cc3c(=O)c(C(=O)O)cn(C4CC4)c3c2OC)CC1C (stereo not drawn) [Compound 149, 7-(4-(3-(2-butyroxy-5-((phosphonomethyl)phosphonoyl)phenyl)-3-methylbutanoyl)-3-methylpiperazin-1-yl)-1-cyclopropyl-6-fluoro-1,4-dihydro-8-methoxy-4-oxoquinoline-3-carboxylic acid] | 89.6% | unable to produce a positive result in vivo | binding to osseous matter, in words [1]: less effectively bound; Measured bacterial titer (Log CFU/g of bone) Test compound (S. aureus ATCC 13709; 15 mg/kg IV, 2 days prior to infection): 5.16 ± 0.72 Log CFU/g of bone |
| COc1c(N2CCN(CCC(=O)c3ccc(OCCCC(P(=O)(O)O)P(=O)(O)O)cc3)C(C)C2)c(F)cc2c(=O)c(C(=O)O)cn(C3CC3)c12 (stereo not drawn) [Compound 121, 1-cyclopropyl-6-fluoro-1,4-dihydro-7-(4-(3-(4-(4,4-bisphosphonobutoxy)phenyl)-3-oxopropyl)-3-methylpiperazin-1-yl)-8-methoxy-4-oxoquinoline-3-carboxylic acid] | 94.7% | efficient prophylactic effect | Measured bacterial titer (Log CFU/g of bone) Test compound (S. aureus ATCC 13709; 20.8 mg/kg IV, 1 day prior to infection): 3.01 ± 0.47 Log CFU/g of bone |
| COc1c(N2C[C@@H]3CCCN[C@@H]3C2)c(F)cc2c(=O)c(C(=O)OCC(=O)Nc3ccc(CC(P(=O)(O)O)P(=O)(O)O)cc3)cn(C3CC3)c12 [Compound 62, (4-(2,2-Bisphosphonoethyl)phenylcarbamoyl)methyl 1-cyclopropyl-6-fluoro-1,4-dihydro-7-((4aS,7aS)-octahydropyrrolo[3,4-b]pyridin-6-yl)-8-methoxy-4-oxoquinoline-3-carboxylate] | 97.2% |  |  |
| O=C(O)c1cn(C2CC2)c2cc(N3CCNCC3)c(F)cc2c1=O [Compound 6, Ciprofloxacin, reference compound] | 0% |  |  |
| COc1c(N2CCNC(C)C2)c(F)cc2c(=O)c(C(=O)SCCCC(P(=O)(O)O)P(=O)(O)O)cn(C3CC3)c12 (stereo not drawn) [Compound 96, S-4,4-bisphosphonobutyl 7-(3-methylpiperazin-1-yl)-1-cyclopropyl-6-fluoro-1,4-dihydro-8-methoxy-4-oxoquinoline-3-carbothioate] | 98.7% |  |  |
| COc1c(N2C[C@@H]3CCCN[C@@H]3C2)c(F)cc2c(=O)c(C(=O)SCCCC(P(=O)(O)O)P(=O)(O)O)cn(C3CC3)c12 [Compound 94, S-4,4-bisphosphonobutyl 7-((4aS,7aS)-octahydropyrrolo[3,4-b]pyridin-6-yl)-1-cyclopropyl-6-fluoro-1,4-dihydro-8-methoxy-4-oxoquinoline-3-carbothioate] | 99.9% |  |  |
| COc1c(N2C[C@@H]3CCCN(C(=O)OCC(=O)Nc4ccc(CC(P(=O)(O)O)P(=O)(O)O)cc4)[C@@H]3C2)c(F)cc2c(=O)c(C(=O)O)cn(C3CC3)c12 [Compound 117, 7-((4aS,7aS)-1-(((4-(2,2-bisphosphonoethyl)phenylcarbamoyl)methoxy)carbonyl)-octahydropyrrolo[3,4-b]pyridin-6-yl)-1-cyclopropyl-6-fluoro-1,4-dihydro-8-methoxy-4-oxoquinoline-3-carboxylic acid] | 99.4% |  |  |
| COc1c(N2C[C@@H]3CCCN[C@@H]3C2)c(F)cc2c(=O)c(C(=O)SCC(=O)NC(P(=O)(O)O)P(=O)(O)O)cn(C3CC3)c12 [Compound 99, S-(1,1-Bisphosphonomethylcarbamoyl)methyl 1-cyclopropyl-6-fluoro-1,4-dihydro-7-((4aS,7aS)-octahydropyrrolo[3,4-b]pyridin-6-yl)-8-methoxy-4-oxoquinoline-3-carbothioate] | 99.0% |  |  |
| COc1c(N2CCN(C(=O)CC(P(=O)(O)O)P(=O)(O)O)C(C)C2)c(F)cc2c(=O)c(C(=O)O)cn(C3CC3)c12 (stereo not drawn) [Compound 112, 7-(4-(3,3-bisphosphonopropionyl)-3-methylpiperazin-1-yl)-1-cyclopropyl-6-fluoro-1,4-dihydro-8-methoxy-4-oxoquinoline-3-carboxylic acid] | 82.5% |  |  |
